Laboratory results from patent US20150064289A1, “Raw Extract of a Sechium Edule Hybrid, Method for Extracting Same and Use Thereof for Formulations Having an Antineoplastic Effect” (priority 2012, published 2015).

Experiments:
normal bone marrow cells = assay: Proliferation of normal bone marrow cells, crystal violet technique; assay type: cell-based; conditions: normal mouse bone marrow cells; 5 µg/mL of citarabine; 5 days
Experimental: To determine the effect of the extract of Sechium edule hybrid named MH-387-07-GISeM” on tumor cells, HeLa cell lines, which are derived from adenocarcinoma of […] cervical epithelial tissue; cell line L929 derived from male mouse's fibrosarcoma of areolar and adipose subcutaneous connective […] tissue, WEHI-3 y K562 are lines derived from leukemia (liquid tumors) which are maintained in IMDM culture medium (Iscove's Modified Dulbecco's Medium). Tumor cells were cultured for 72 hours in 200 μL of culture medium and serum containing 0.0, 0.15, 0.3, 0.6, 1.2, 2.5 and 5 μg/mL of extract, and were evaluated by the crystal violet technique (FIG. 1). Cells were maintained in culture for 5 days after being stimulated with diverse doses of extract or Ara-C as a control (5 μM), and were evaluated by the crystal violet technique, FIG. 1, where a dose-response curve of the effect of H-387-07-GISeM extract on cell proliferation of lines EHI-3, HeLa, L929, and bone marrow cells was plotted. Values are the average of three tests with tree replicates. Lines above the bars indicate±standard deviation. * Significant difference (p<0.05) compared to control. […] On the other hand, normal bone marrow cells of mouse treated with […] achieve a proliferation of 60% compared to the control, but with 5 µg/mL of citarabine (Ara-c) it only reaches a 35%.

HeLa = assay: Apoptotic bodies by morphology (Giemsa), HeLa; assay type: cell-based, human; conditions: 48 hrs, Ara-C 5 μg/mL, mean ± standard deviation
Experimental: (§1) Once elapsed that time, cells were collected and placed on a slide; then were fixed with 1 mL of methanol and stained for 20 minutes with 10% Giemsa stain. Cells were observed under a microscope (Cari Zeiss, Primo Star, Germany) equipped with 100× objective lens. Morphological changes like decreased cell volume, chromatin condensation, loss of cell membrane regularity, were cytomorphological parameters evaluated in the formation of apoptotic bodies. 200 cells of each experiment were counted to obtain the percentage of normal and apoptotic cells.

WEHI-3 [1] = assay: Apoptotic bodies by morphology (Giemsa), WEHI-3; assay type: cell-based, mouse; conditions: 48 hrs, Ara-C 5 μg/mL, mean ± standard deviation
Experimental: as §1

WEHI-3 [2] = assay: Apoptosis induction through DNA fragmentation (agarose gel); conditions: WEHI-3 grown 48 hours, extract at IC50, FIG. 3
Experimental: Apoptosis induction was evaluated through DNA fragmentation.

K-562 = assay: Cell viability by trypan blue exclusion, K-562; assay type: cell-based; conditions: K562
Experimental: On the other hand, the cell viability was evaluated in order to determine that the extract only acts against tumor cells, for which purpose tumor cells were cultured for 72 hours under the above conditions in quantities of 200 μL of medium per well in 96-well, flat bottom, ultra-low adherence plates (Costar, Cambridge, Mass., USA) with various doses of extract.

L929 = assay: Apoptotic bodies by morphology (Giemsa), L929; assay type: cell-based, mouse; conditions: 48 hrs, Ara-C 5 μg/mL, mean ± standard deviation
Experimental: as §1

SMILES	proliferation compared to the control (normal bone marrow cells) [%]	% Apoptotic bodies (HeLa) [%]	% Apoptotic bodies (WEHI-3 [1]) [%]	DNA fragmentation (WEHI-3 [2])	effect on viability (K-562; Ara-c as worded in text)	% Apoptotic bodies (L929) [%]	viability at 1 µM (K-562; Homo sapiens, K-562, imatinib 1 μM (footnote), mean ± standard deviation) [%]
Nc1ccn([C@@H]2O[C@H](CO)[C@@H](O)[C@@H]2O)c(=O)n1 [Ara-C, citarabine]	35	21 ± 0	61.5 ± 8.2	experiences DNA fragmentation	totally does so	6 ± 1.4	–
Cc1ccc(NC(=O)c2ccc(CN3CCN(C)CC3)cc2)cc1Nc1nccc(-c2cccnc2)n1 [imatinib]	–	–	–	–	–	–	4
